The text below walks through data of BindingDB's records for doi:10.7270/Q2QR4VH9 (University of Pittsburgh, 2006).

pIC50: −log10 of the molar value.

For the experiment, the target named is T1, Dual specificity protein phosphatase 1 (Homo sapiens, UniProt P28562).
T1 sequence (P28562 whole entry): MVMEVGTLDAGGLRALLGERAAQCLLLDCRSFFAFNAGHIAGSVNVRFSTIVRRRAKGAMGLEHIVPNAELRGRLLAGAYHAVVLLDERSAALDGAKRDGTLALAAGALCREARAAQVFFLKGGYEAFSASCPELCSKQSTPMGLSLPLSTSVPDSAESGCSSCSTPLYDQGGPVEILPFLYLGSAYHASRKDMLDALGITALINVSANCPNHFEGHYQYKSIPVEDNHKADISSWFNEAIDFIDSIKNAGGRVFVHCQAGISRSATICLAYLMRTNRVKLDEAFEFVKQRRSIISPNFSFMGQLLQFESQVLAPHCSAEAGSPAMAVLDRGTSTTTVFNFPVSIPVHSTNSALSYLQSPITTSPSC
In words: reproducibility of MKP-1 inhibition curves – biochemical, reproducibility testing, probe assessment, dose response (AID 563).
Usually pIC50 stands for −log10 of the IC50, conventionally taken in molar units. Consider `CC1=C(/C=C/C(C)=C/C=C/C(C)=C/C(=O)O)C(C)(C)CCC1` [ALL-TRANS-RETINOIC ACID], for which the negative logarithm of the IC50 (pIC50) was 4.37.
The same measure for `CCc1ccc(NC(=O)CSc2nc3ccccc3c(=O)n2CCN2CCOCC2)cc1` [MLS000095236]: under 4.30; for `CCCCn1c(NC(=O)c2ccccc2)c(C#N)c2nc3ccccc3nc21` [SMR000060333]: 4.52; for `Cc1c(N=c2c(=O)c3ccccc3c2=O)c(=O)n(-c2ccccc2)n1C` [MLS000105950]: 4.58.
Take `Cn1ncnc2c(=O)n(C)c(=O)nc1-2`: the negative logarithm of the IC50 (pIC50) is 6.13.
The figure for `Cc1ccc(/C=C/C2=Cc3c(sc(NC(=O)CSc4nnc(N)[nH]4)c3C#N)C(C)(C)C2)o1` [2-[(5-azanyl-1H-1,2,4-triazol-3-yl)sulfanyl]-N-[3-cyano-7,7-dimethyl-5-[(E)-2-(5-methylfuran-2-yl)ethenyl]-6H-1-benzothiophen-2-yl]ethanamide] is 4.75.
The same measure for `O=C1Nc2ccccc2SC(c2ccccc2)C1O` (stereo not given) [3-hydroxy-2-phenyl-2,3-dihydro-1,5-benzothiazepin-4(5H)-one]: 4.48.
The same measure for `COC(=O)c1ccccc1NC(=O)CN1C(=O)C2CCCN2c2ncc(Cl)cc21` (stereo not given) [MLS000094302]: 4.33; for `CCCCNC(=O)c1c(N)n(CCCOC)c2nc3ccccc3nc12` [2-amino-N-butyl-1-(3-methoxypropyl)-3-pyrrolo[3,2-b]quinoxalinecarboxamide]: 4.33.
Regarding `O=C1c2ccccc2-c2onc3ccc(NCCCn4ccnc4)c1c23` [SMR000044769], the pIC50 was 4.56.
The same measure for `CCCCCC#CCC#CCC#CCC#CCCCC(=O)O`: 4.92; for `O=C(Nc1ccc2nc(-c3ccco3)c(-c3ccco3)nc2c1)N1CCCCCC1`: 4.58.
The figure for `CCCCn1c(SCC(=O)c2ccc(OC)cc2OC)nc2cc(S(N)(=O)=O)ccc21` [1-butyl-2-[2-(2,4-dimethoxyphenyl)-2-oxidanylidene-ethyl]sulfanyl-benzimidazole-5-sulfonamide] is 4.34; for `[O-]/[N+](=C\c1ccc(OC(F)F)cc1)c1ccccc1` [1-[4-(difluoromethoxy)phenyl]-N-phenylmethanimine oxide] it is under 4.30.
The figure for `N#Cc1c(N)sc(=S)c2c1CCN(Cc1ccccc1)C2` [3-Amino-7-benzyl-1-thioxo-5,6,7,8-tetrahydro-1H-thiopyrano[3,4-c]pyridine-4-carbonitrile] is 5.13; for `CCOc1cc(/C=C(/C#N)c2ccc(F)cc2)ccc1OCc1ccc(C(=O)O)o1` [5-[[4-[(E)-2-cyano-2-(4-fluorophenyl)ethenyl]-2-ethoxyphenoxy]methyl]furan-2-carboxylic acid] it is 4.44.
For the compound `COc1ccc(Cn2c(C)nc3c(c2=O)c2nc4ccccc4nc2n3Cc2ccco2)cc1` [MLS000079944], the negative-log IC50 (pIC50) is 4.66.
The same measure for `CC(C)Cn1c(N)c(C(=O)COC(=O)c2cc(-c3ccco3)nc3ccccc23)c(=O)n(C)c1=O` [2-(2-furanyl)-4-quinolinecarboxylic acid [2-[4-amino-1-methyl-3-(2-methylpropyl)-2,6-dioxo-5-pyrimidinyl]-2-oxoethyl] ester]: 4.62; for `O=C(OC1CCCCC1)c1ccc2c(c1)C1C=CCC1C(C(=O)O)N2` (stereo not given) [SMR000019385]: 4.84; for `CCOc1ccc(-c2cc3nc(C4CCN(C(=O)OC(C)(C)C)CC4)c(C(=O)O)cn3n2)cc1` [2-(4-ethoxyphenyl)-5-[1-[(2-methylpropan-2-yl)oxy-oxomethyl]-4-piperidinyl]-6-pyrazolo[1,5-a]pyrimidinecarboxylic acid]: 4.52.
The same measure for `Cc1cccc(NC(=O)c2cc(NC(=O)C3CCCCC3C(=O)O)ccc2N2CCCCC2)c1` (stereo not given) [2-({[3-{[(3-methylphenyl)amino]carbonyl}-4-(1-piperidinyl)phenyl]amino}carbonyl)cyclohexanecarboxylic acid]: under 4.30; for `FC(F)(F)c1ccc(N2CCOCC2)c(Nc2nc3ccccc3n3cnnc23)c1` [MLS000093276]: under 4.30; for `CCOc1ccc2noc3c2c1C(=O)c1ccccc1-3` [MLS000106837]: under 4.30.
The figure for `Nc1nc2c(s1)CCc1c-2cnn1-c1ccccc1` [MLS000085948] is under 4.30; for `Cc1nc2cc(-c3cccc(F)c3)nn2c(C)c1CCC(=O)N1CCC2(CC1)OCCO2` [1-(1,4-dioxa-8-azaspiro[4.5]decan-8-yl)-3-[2-(3-fluorophenyl)-5,7-dimethyl-6-pyrazolo[1,5-a]pyrimidinyl]-1-propanone] it is under 4.30.
As to `O=C1C=C(NCc2ccc(Cl)c(Cl)c2)CC1` [3-[(3,4-dichlorobenzyl)amino]cyclopent-2-en-1-one], the pIC50 was under 4.30.
The same measure for `COc1ccc2noc3c2c1C(=O)c1ccccc1-3` [MLS000106874]: 4.34; for `COc1ccc(-n2c(NC(=O)c3ccco3)c(C#N)c3nc4ccccc4nc32)cc1` [MLS000079925]: 4.47; for `Nc1c(N2CCCC2)cc(Cl)c2nonc12` [(7-chloro-5-pyrrolidino-benzofurazan-4-yl)amine]: under 4.30.
The figure for `COc1cc(/C=C(/C#N)c2ccc(F)cc2)ccc1OCc1ccc(C(=O)O)o1` [5-({4-[2-cyano-2-(4-fluorophenyl)vinyl]-2-methoxyphenoxy}methyl)-2-furoic acid] is under 4.30; for `O=C1C(=C2C(=O)c3ccccc3C2=O)Nc2ccccc21` [MLS000071738] it is under 4.30.
The figure for `[O-]/[N+](=C\c1ccncc1)c1ccccc1` is under 4.30; for `COCCCn1c(N)c(C(=O)NCCC(C)C)c2nc3ccccc3nc21` [MLS000041744] it is under 4.30.
Turning to `CCn1nc(-c2ccccc2)nc2c(=O)n(C)c(=O)nc1-2` [1-Ethyl-6-methyl-3-phenyl-1H-pyrimido[5,4-e][1,2,4]triazine-5,7-dione], the pIC50 is 5.93.
The figure for `O=C(Nc1ccccc1)c1ccc2nc(-c3ccco3)c(-c3ccco3)nc2c1` [2,3-di-2-furyl-N-phenyl-6-quinoxalinecarboxamide] is 4.45.
The figure for `Cc1cc(C)n2c(SCC(=O)N3CCN(S(=O)(=O)c4ccc(Cl)cc4)CC3)nnc2n1` [1-[4-(4-chlorophenyl)sulfonyl-1-piperazinyl]-2-[(5,7-dimethyl-[1,2,4]triazolo[4,3-a]pyrimidin-3-yl)thio]ethanone] is 4.31; for `CCCSc1nnc(NC(=O)c2sc3nc(-c4cccs4)ccc3c2N)s1` [3-amino-N-(5-propylsulfanyl-1,3,4-thiadiazol-2-yl)-6-thiophen-2-ylthieno[2,3-b]pyridine-2-carboxamide] it is 4.66.
The figure for `CC(=O)[C@@H]1[C@@H]2C(=O)N(c3ccc(F)c(Cl)c3)C(=O)[C@@H]2C2c3ccccc3C=CN21` (stereo not given in full) [MLS000040594] is under 4.30; for `O=C(c1cccs1)c1no[n+]([O-])c1C(=O)c1cccs1` [(5-oxidanidyl-4-thiophen-2-ylcarbonyl-1,2,5-oxadiazol-5-ium-3-yl)-thiophen-2-yl-methanone] it is 5.19.
As for `O=C(NC1(O)C(=O)c2ccccc2C1=O)c1ccccc1` [N-(2-hydroxy-1,3-dioxo-2-indenyl)benzamide], the negative-log IC50 (pIC50) was 4.32.
`COc1ccc(-c2cc3nc(C4CCN(C(=O)OC(C)(C)C)CC4)c(C(=O)O)cn3n2)cc1` [2-(4-methoxyphenyl)-5-[1-[(2-methylpropan-2-yl)oxy-oxomethyl]-4-piperidinyl]-6-pyrazolo[1,5-a]pyrimidinecarboxylic acid] gave a pIC50 of 4.47.
The figure for `O=C1C=Cc2ccccc2C1=O` [1,2-dihydronaphthalene-1,2-dione] is 4.44.
The figure for `Cc1cc(NC(=O)c2ccc(S(=O)(=O)N3CCCC3)cc2)nc2c1c(=O)oc1ccccc12` [MLS000091355] is 4.60; for `N#Cc1c(N2CCCC2)nc(N)c2c(N)nc(N3CCCC3)cc12` [SMR000061605] it is 4.73.
The figure for `CCn1c(SCC(=O)Nc2ccc3c(c2)c2ccccc2n3CC)nnc1-c1ccco1` [MLS000050867] is 4.69; for `CC(C)(C)N1C(=O)Cc2c1nc(N)c1c(N)nc(N3CCCCC3CO)c(C#N)c21` (stereo not given) [5,6-bis(azanyl)-3-tert-butyl-8-[2-(hydroxymethyl)piperidin-1-yl]-2-oxidanylidene-1H-pyrrolo[2,3-c][2,7]naphthyridine-9-carbonitrile] it is under 4.30.
Compound `N#Cc1c(NC(=O)c2ccc(Br)o2)n(-c2ccccc2)c2nc3ccccc3nc12` [5-bromanyl-N-(3-cyano-1-phenyl-pyrrolo[3,2-b]quinoxalin-2-yl)furan-2-carboxamide] gave a pIC50 of 4.61.
The figure for `CCn1nc(-c2cccs2)nc2c(=O)n(C)c(=O)nc1-2` [1-ethyl-6-methyl-3-thiophen-2-yl-pyrimido[5,4-e][1,2,4]triazine-5,7-dione] is 5.91; for `[O-]/[N+](=C/c1ccc(F)cc1)c1ccccc1` [(E)-(4-fluorobenzylidene)(phenyl)azane oxide] it is under 4.30.
The figure for `COc1ccc(Br)cc1C=c1sc2nc(-c3ccco3)nn2c1=O` [5-[(5-bromanyl-2-methoxy-phenyl)methylidene]-2-(furan-2-yl)-[1,3]thiazolo[3,2-b][1,2,4]triazol-6-one] is 4.89.
